Assay results reported in US9884832B2 (priority 2011, dated 2018).

These molecules were tested against AM2 S31 (wild-type serine at position 31 in the M2 protein), influenza virus A/Udorn/72 (Influenza A virus, UniProt P0DOF5) (assay: cell-based). Details: 100 uM; Xenopus oocytes; activity range class; read-out: S31 OOcyte Inhibition at 100 uM (%).
Sequence of AM2 S31 (wild-type serine at position 31 in the M2 protein), influenza virus A/Udorn/72 (P0DOF5 whole entry, looked up): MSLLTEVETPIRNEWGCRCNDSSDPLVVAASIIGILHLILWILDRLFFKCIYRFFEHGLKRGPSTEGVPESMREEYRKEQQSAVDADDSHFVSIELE
c1csc(-c2noc(CNC34CC5CC(CC(C5)C3)C4)n2)c1 [Example 148a, N-((3-(thiophen-2-yl)-1,2,4-oxadiazol-5-yl)methyl)adamantan-1-amine] showed an inhibition at 100 µM of 0 to 30%. CC(C)(C)c1ccc(-c2noc(CNC34CC5CC(CC(C5)C3)C4)n2)cc1 [Example 124a, N-((3-(4-(tert-butyl)phenyl)-1,2,4-oxadiazol-5-yl)methyl)adamantan-1-amine] was tested, and the inhibition at 100 µM was 0 to 30%. In the case of Cc1ccc(CNC23CC4CC(CC(C4)C2)C3)cc1 [Example 8a, N-(4-Methylbenzyl)adamantan-1-amine], the inhibition at 100 µM is reported as 31 to 95%. For COC(=O)c1ccc(-c2ccc(CNC34CC5CC(CC(O)(C5)C3)C4)cc2)cc1 [Example 190a, 4′-[(3-Hydroxy-adamantan-1-ylamino)-methyl]-biphenyl-4-carboxylic acid methyl ester], the inhibition at 100 µM was 0 to 30%. CCSc1ccc(CNC23CC4CC(CC(C4)C2)C3)cc1 [Example 12a, N-(4-(ethylthio)benzyl)adamantan-1-amine] was tested, and the inhibition at 100 µM was 0 to 30%. Work on c1cc(C2CC2)sc1CNC12CC3CC(CC(C3)C1)C2 [Example 108a, N-((5-cyclopropylthiophen-2-yl)methyl)adamantan-1-amine] yielded an inhibition at 100 µM of 0 to 30%. Clc1cc2cc(CNC34CC5CC(CC(C5)C3)C4)sc2s1 [Example 173a, Adamantan-1-yl-(5-chloro-thieno[2,3-b]thiophen-2-ylmethyl)-amine] gave an inhibition at 100 µM of 31 to 95%. Work on Cn1c(CNC23CC4CC(CC(C4)C2)C3)nc2ccccc21 [Example 180a, Adamantan-1-yl-(1-methyl-1H-benzoimidazol-2-ylmethyl)-amine] yielded an inhibition at 100 µM of 0 to 30%. In the case of c1coc(-c2nc(CNC34CC5CC(CC(C5)C3)C4)no2)c1 [Example 160a, N-((5-(furan-2-yl)-1,2,4-oxadiazol-3-yl)methyl)adamantan-1-amine], the inhibition at 100 µM is reported as 0 to 30%. Molecule Brc1ccc(-c2cc(CNC34CC5CC(CC(C5)C3)C4)no2)cc1 [Example 121a, N-((5-(4-bromophenyl)isoxazol-3-yl)methyl)adamantan-1-amine] has an inhibition at 100 µM of 0 to 30%. c1cc(-c2nc(CNC34CC5CC(CC(C5)C3)C4)no2)cs1 [Example 143a, N-((5-(thiophen-3-yl)-1,2,4-oxadiazol-3-yl)methyl)adamantan-1-amine] showed an inhibition at 100 µM of 0 to 30%. Work on OC12CC3CC(C1)CC(NCc1cc4cc(Br)sc4s1)(C3)C2 [Example 195a, 3-[(5-Bromo-thieno[2,3-b]thiophen-2-ylmethyl)-amino]-adamantan-1-ol] yielded an inhibition at 100 µM of 0 to 30%. In the case of Oc1ccc2[nH]c(CNC34CC5CC(CC(C5)C3)C4)cc2c1 [Example 179a], the inhibition at 100 µM is reported as 0 to 30%. OCc1cc(Br)ccc1CNC12CC3CC(CC(C3)C1)C2 [Example 52a, [2-(Adamantan-1-ylaminomethyl)-5-bromo-phenyl]methanol] showed an inhibition at 100 µM of 0 to 30%. For COc1cccc(COc2ccc(CNC34CC5CC(CC(C5)C3)C4)cc2)c1 [Example 14a, Adamantan-1-yl-[4-(3-methoxy-benzyloxy)-benzyl]-amine], the inhibition at 100 µM was 0 to 30%. Work on c1ccc(Oc2ccc(CNC34CC5CC(CC(C5)C3)C4)cc2)cc1 [Example 13a, Adamantan-1-yl-(4-phenoxy-benzyl)-amine] yielded an inhibition at 100 µM of 31 to 95%. C(#Cc1ccccc1)CNC12CC3CC(CC(C3)C1)C2 [Example 198a, N-(3-phenylprop-2-yn-1-yl)adamantan-1-amine] showed an inhibition at 100 µM of 0 to 30%. In the case of COc1ccc(-c2nnc(CNC34CC5CC(CC(C5)C3)C4)o2)cc1 [Example 127a, N-((5-(4-methoxyphenyl)-1,3,4-oxadiazol-2-yl)methyl)adamantan-1-amine], the inhibition at 100 µM is reported as 0 to 30%.

Same assay, conditions: Table 1; 100 uM; Xenopus oocytes, pH 5.5, -20 mV; read-out: S31 OOcyte Inhibition at 100 uM (%)
Molecule c1ncc(CCNCC23CC4CC(CC(C4)C2)C3)[nH]1 [Example 1, Adamantan-1-ylmethyl-[2-(3H-imidazol-4-yl)-ethyl]-amine] has an inhibition at 100 µM of 0 to 30%. In the case of FC(F)(F)Sc1ccc(CNC23CC4CC(CC(C4)C2)C3)cc1 [Example 26, Adamantan-1-yl-(4-trifluoromethylsulfanyl-benzyl)-amine], the inhibition at 100 µM is reported as 0 to 30%. Oc1ccc(CNC23CC4CCC(CC(C4)C2)C3)c(O)c1 [Example 110, 4-(Tricyclo[4.3.1.13,8]undec-1-ylaminomethyl)-benzene-1,3-diol] showed an inhibition at 100 µM of 31 to 95%. c1cc2cc(CNC34CC5CC(CC(C5)C3)C4)sc2o1 [Example 83, Adamantan-1-yl-thieno[2,3-b]furan-5-ylmethyl-amine] showed an inhibition at 100 µM of 31 to 95%. Oc1ccc(CNC23CC4CC(CC(C4)C2)C3)cc1Cl [Example 47, 4-(Adamantan-1-ylaminomethyl)-2-chloro-phenol] gave an inhibition at 100 µM of 31 to 95%. Work on Oc1ccc(CNC23CC4CC(CC(C4)C2)C3)cc1O [Example 45, 4-(Adamantan-1-ylaminomethyl)-benzene-1,2-diol] yielded an inhibition at 100 µM of 31 to 95%. For O=C(Oc1ccc(CNC23CC4CC(CC(C4)C2)C3)cc1)c1cccs1 [Example 37, Thiophene-2-carboxylic acid 4-(adamantan-1-ylaminomethyl)-phenyl ester], the inhibition at 100 µM was 0 to 30%. c1cc2sc(CNC34CC5CC(CC(C5)C3)C4)cc2s1 [Example 81, Adamantan-1-yl-thieno[3,2-b]thiophen-2-ylmethyl-amine] was tested, and the inhibition at 100 µM was 31 to 95%. Oc1cccc(CNC23CC4CC(CC(C4)C2)C3)c1 [Example 31, 3-(Adamantan-1-ylaminomethyl)-phenol] showed an inhibition at 100 µM of 31 to 95%. COc1cc(F)c(CNC23CC4CC(CC(C4)C2)C3)c(F)c1 [Example 67, Adamantan-1-yl-(2,6-difluoro-4-methoxy-benzyl)-amine] was tested, and the inhibition at 100 µM was 31 to 95%. [O-][n+]1ccc(CNC23CC4CC(CC(C4)C2)C3)cc1 [Example 74, Adamantan-1-yl-(1-oxy-pyridin-4-ylmethyl)-amine] was tested, and the inhibition at 100 µM was 0 to 30%. With CC(NC1C2CC3CC(C2)CC1C3)c1ccc(O)cc1O (stereo not drawn) [Example 102, 4-[1-(Adamantan-2-ylamino)-ethyl]-benzene-1,3-diol] the inhibition at 100 µM was 31 to 95%. For Nc1ncc(CNC23CC4CC(CC(C4)C2)C3)cn1 [Example 75, 5-(Adamantan-1-ylaminomethyl)-pyrimidin-2-ylamine], the inhibition at 100 µM was 31 to 95%. Work on COc1ccccc1CNC12CC3CC(CC(C3)C1)C2 [Example 29, Adamantan-1-yl-(2-methoxy-benzyl)-amine] yielded an inhibition at 100 µM of 0 to 30%. With c1cc2cc(CNC34CC5CC(CC(C5)C3)C4)[nH]c2s1 [Example 82, Adamantan-1-yl-(6H-thieno[2,3-b]pyrrol-5-ylmethyl)-amine] the inhibition at 100 µM was 31 to 95%. c1cc2cc(CNC34CC5CC(CC(C5)C3)C4)sc2s1 [Example 79, Adamantan-1-yl-thieno[2,3-b]thiophen-2-ylmethyl-amine] gave an inhibition at 100 µM of 31 to 95%. c1ccc2oc(CNC34CC5CC(CC(C5)C3)C4)cc2c1 [Example 89, Adamantan-1-yl-benzofuran-2-ylmethyl-amine] was tested, and the inhibition at 100 µM was 0 to 30%. C[Si](C)(C)CCCNCc1ccc(O)cc1O [Example 113, 4-[(3-Trimethylsilanyl-propylamino)-methyl]-benzene-1,3-diol] was tested, and the inhibition at 100 µM was 31 to 95%. For c1c(CNC23CC4CC(CC(C4)C2)C3)sc2c1CSC2 [Example 84, Adamantan-1-yl-(4,6-dihydro-thieno[3,4-b]thiophen-2-ylmethyl)-amine], the inhibition at 100 µM was 31 to 95%. c1ccc(CNC23CC4CC(CC(C4)C2)C3)cc1 [Example 8, Adamantan-1-yl-benzyl-amine] showed an inhibition at 100 µM of 31 to 95%. CC(NCc1ccc(O)cc1)C12CC3CC(CC(C3)C1)C2 (stereo not drawn) [Example 4, 4-[(1-Adamantan-1-yl-ethylamino)-methyl]-phenol] gave an inhibition at 100 µM of 31 to 95%. Molecule [O-][S+]1Cc2cc(CNC34CC5CC(CC(C5)C3)C4)sc2C1 (stereo not drawn) [Example 85, Adamantan-1-yl-(5-oxo-5,6-dihydro-4H-5M-thieno[3,4-b]thiophen-2-ylmethyl)-amine] has an inhibition at 100 µM of 0 to 30%. CS(=O)(=O)c1ccc(CNC23CC4CC(CC(C4)C2)C3)cc1 [Example 25, Adamantan-1-yl-(4-methanesulfonyl-benzyl)-amine] was tested, and the inhibition at 100 µM was 31 to 95%. CC1(C)CCC(NCc2ccc(O)cc2O)CC1 [Example 108, 4-[(4,4-Dimethyl-cyclohexylamino)-methyl]-benzene-1,3-diol] was tested, and the inhibition at 100 µM was 31 to 95%.

Same assay, conditions: Table 3; 100 uM; Xenopus oocytes, pH 5.5, -20 mV; read-out: S31 OOcyte Inhibition at 100 uM (%)
Work on c1csc(-c2nc(CNC34CC5CC(CC(C5)C3)C4)cs2)c1 [Example 11b, N-((2-(thiophen-2-yl)thiazol-4-yl)methyl)adamantan-1-amine] yielded an inhibition at 100 µM of 0 to 30%. FC(F)(F)Oc1ccc(-c2cc(CNC34CC5CC(CC(C5)C3)C4)no2)cc1 [Example 36b, N-((5-(4-(trifluoromethoxy)phenyl)isoxazol-3-yl)methyl)adamantan-1-amine] was tested, and the inhibition at 100 µM was 0 to 30%. Cc1ccc(-c2ccc(CNC34CC5CC(CC(C5)C3)C4)s2)o1 [Example 52b, N-((5-(5-Methylfuran-2-yl)thiophen-2-yl)methyl)adamantan-1-amine] gave an inhibition at 100 µM of 0 to 30%. Work on Cc1csc(-c2ccc(CNC34CC5CC(CC(C5)C3)C4)cc2)c1 [Example 5b, N-(4-(4-Methylthiophen-2-yl)benzyl)adamantan-1-amine] yielded an inhibition at 100 µM of 0 to 30%. Molecule Cn1cc(CNC23CC4CC(CC(C4)C2)C3)nn1 [Example 18b, N-((1-methyl-1H-1,2,3-triazol-4-yl)methyl)adamantan-1-amine] has an inhibition at 100 µM of 0 to 30%. For CCOc1ccc(-c2ccc(CNC34CC5CC(CC(C5)C3)C4)s2)cc1 [Example 49b, N-((5-(4-Ethoxyphenyl)thiophen-2-yl)methyl)adamantan-1-amine], the inhibition at 100 µM was 0 to 30%. With Clc1ccc(CNC23CC4CC(CC(C4)C2)C3)nn1 [Example 70b, Adamantan-1-yl-(6-chloro-pyridazin-3-ylmethyl)-amine] the inhibition at 100 µM was 31 to 95%. Molecule COc1ncc(CNC23CC4CC(CC(C4)C2)C3)cn1 [Example 55b, N-((2-methoxypyrimidin-5-yl)methyl)adamantan-1-amine] has an inhibition at 100 µM of 0 to 30%. In the case of c1nc(N2CCCCC2)ncc1CNC12CC3CC(CC(C3)C1)C2 [Example 58b, N-((2-(piperidin-1-yl)pyrimidin-5-yl)methyl)adamantan-1-amine], the inhibition at 100 µM is reported as 0 to 30%.
